According to patent publication US8383656B2, “Thiazolidinedione energy restriction-mimetic agents” (The Ohio State University Research Foundation, priority 2009, dated 2013):
“Also recorded” adds a separate entry of the source. Read-outs that look alike come from different tables or passages of the source.

Key:
[1] = test system: LPS-stimulated IL-6 production in THP-1 macrophages; assay: ELISA of LPS-stimulated IL-6 production in THP-1 macrophages; assay type: cell-based, human; conditions: for first-tier screening result (AMPK/mTOR activation status and IL-6/IL-6 receptor signaling): LPS-stimulated THP-1 macrophages; for inhibition at 10 µM: read-out: inhibition of IL-6 production
Method: (§1) Cells and cell culture. THP-1 monocytic cells were purchased from the American Type Culture Collection (Rockville, Md.), and maintained with L-glutamine-containing RPMI 1640 supplemented with 10% fetal bovine serum (FBS), 0.25% glucose, 0.01% sodium pyruvate, 50 μM 2-mercaptoethanol, and 0.1 ml/ml penicillin/streptomycin/L-glutamine. Differentiation of THP-1 monocytes into macrophages was carried out by exposure to PMA (50 nM) in the aforementioned RPMI 1640 medium for 24 h. Colon-26 (C-26) adenocarcinoma cells were provided by a researcher at The Ohio State University. The C-26 cells were maintained in RPMI 1640 medium supplemented with 5% FBS and 1% penicillin/streptomycin.
ELISA. IL-6 release by differentiated THP-1 macrophages in response to 10 ng/ml of LPS was analyzed by using the IL-6 ELISA kit (Cayman Chemical Co.; Ann Arbor, Mich.) according to the manufacturer's instruction in triplicate. The effect of each test compound on LPS-stimulated IL-6 release is presented as percent inhibition and was calculated using the following formula: percentage inhibition=100%×{1−[(O.D. of sample−O.D. of control)/(O.D. of LPS−O.D. of control)]}.

AMPK = assay: Western blot of AMPK phosphorylation in LPS-treated THP-1 macrophages; assay type: cell-based, human
Method: Western blotting. THP-1 cells were lysed in SDS-sample buffer after washing with iced-PBS buffer, and then heated at 95° C. for 20 minutes. Protein extracts were prepared using M-PER mammalian protein extraction reagent (Pierce, Rockford, Ill.), containing freshly added 1% phosphatase and protease inhibitor cocktails (Calbiochem). After centrifugation of lysates at 13000 g for 10 min, supernatants were collected, and the protein concentration in each sample was determined by protein assay (Bio-Rad). Protein extracts were then suspended in 2×SDS sample buffer, separated by electrophoresis in 10% SDS-polyacrylamide gels, and transferred to nitrocellulose membranes using a semidry transfer cell. The transblotted membrane was washed twice with Tris-buffered saline containing 0.1% Tween-20 (TBST). After blocking with TBST containing 5% nonfat milk for 1 h, the membrane was incubated with primary antibodies: p172Thr-AMPK, AMPK, p705Tyr-STAT3 and STAT3 (Cell Signaling Technology; Beverly, Mass.); p389Thr-p70S6K and p70S6K (Santa Cruz Biotechnology; Santa Cruz, Calif.), each at 1:1,000 dilution in 1% TBST-nonfat milk at 4° C. overnight. After incubation with the primary antibody, the membrane was washed three times with TBST for a total of 30 min, followed by incubation with horseradish peroxidase-conjugated goat anti-mouse IgG (diluted 1:2500) for 1 h at room temperature. […]

[2] = test system: AMPK in C-26 colon adenocarcinoma cells; assay: Western blot of AMPK phosphorylation in C-26 cells; assay type: cell-based; conditions: dose- and time-dependent, 10% FBS-containing medium
Method: as §1
Western blotting. THP-1 cells were lysed in SDS-sample buffer after washing with iced-PBS buffer, and then heated at 95° C. for 20 minutes. Protein extracts were prepared using M-PER mammalian protein extraction reagent (Pierce, Rockford, Ill.), containing freshly added 1% phosphatase and protease inhibitor cocktails (Calbiochem). After centrifugation of lysates at 13000 g for 10 min, supernatants were collected, and the protein concentration in each sample was determined by protein assay (Bio-Rad). Protein extracts were then suspended in 2×SDS sample buffer, separated by electrophoresis in 10% SDS-polyacrylamide gels, and transferred to nitrocellulose membranes using a semidry transfer cell. […]

[3] = test system: conversion of LC3-I to LC3-II in LNCaP cells; assay: GFP-LC3 conversion (autophagy) in LNCaP cells; assay type: cell-based; conditions: 5 μM, GFP-LC3-transfected LNCaP cells
Method: (§2) Transfections were performed by electroporation using Nucleofector kit R of the Amaxa Nucleofector system (Amaxa Biosystems, Cologne, Germany). LNCaP cells were transfected with the following plasmids or siRNA: WT- and H363Y-Flag-Sirt1 (DN-Sirt1), WT- and K45R-Myc-AMPK (DN-AMPK), GFP-LC3, TSC2 shRNA, and DDIT3 siRNA (GADD153). […] For the fluorescent microscopic analysis, LNCaP cells transfected with the GFP-LC3 expression plasmid or with scrambled or TSC2 shRNA were treated as indicated for 36 h. After cells were fixed with 3.7% formaldehyde at room temperature for 20 min, nuclear counterstaining was performed using a 4,6-diamidino-2-phenylindole (DAPI)-containing mounting medium (Vector Laborotaries, Burlingame, Calif.) before examination. Images were observed using a Nikon microscope (Eclipse TE300).

[4] = test system: MCF-7 breast cancer cells; assay: MTT cell viability assay, MCF-7 cells; assay type: cell-based; conditions: Homo sapiens, MCF7, 72 h, 10% FBS-supplemented medium, read-out: IC50 in inhibiting the viability of MCF-7 breast cancer cells
Method: (§3) Cell viability was determined using the 3-(4,5-dimethylthiazol-2-yl)-2,5-diphenyltetrazolium bromide) (MTT) assay. LNCaP and MCF-7 cells were seeded in 96-well plates (5000 cells/well) and incubated in their respective culture media supplemented with 10% FBS for 24 h. […] Drug-containing medium was then replaced with 1×MTT (0.5 mg/mL in RPMI 1640), followed by incubation at 37° C. for 2 h. After removal of medium, the reduced MTT dye was solubilized in 200 μL/well DMSO, and absorbances were measured at 570 nm.

[5] = test system: LNCaP prostate cancer cells; assay: MTT cell viability assay, LNCaP cells; assay type: cell-based; conditions: Homo sapiens
Method: The compounds were tested for their ability to decrease LNCaP prostate cancer cell viability as measured by the 3-(4,5-dimethylthiazol-2-yl)-2,5-diphenyltetrazolium bromide) (MTT) assay.
as §3

[6] = test system: human tumor cell lines of the cancer screening panel; assay: NCI60 cell line screening; assay type: cell-based; conditions: 48 h, SRB; variety of cancer cell types
Method: The NCI60 screening method was carried out using the following methodology. The human tumor cell lines of the cancer screening panel were grown in RPMI 1640 medium containing 5% fetal bovine serum and 2 mM L-glutamine. The cells were then inoculated into 96 well microtiter plates in 100 μL at plating densities ranging from 5,000 to 40,000 cells/well depending on the doubling time of individual cell lines. After cell inoculation, the microtiter plates are incubated at 37° C., 5% CO2, 95% air and 100% relative humidity for 24 h prior to addition of the thiazolidinedione derivatives. […]
Following drug addition, the plates were incubated for an additional 48 h at 37° C., 5% CO2, 95% air, and 100% relative humidity. […] Bound stain is subsequently solubilized with 10 mM trizma base, and the absorbance was read on an automated plate reader at a wavelength of 515 nm. […] Using the seven absorbance measurements [time zero, (Tz), control growth, (C), and test growth in the presence of drug at the five concentration levels (Ti)], the percentage growth is calculated at each of the drug concentrations levels. Percentage growth inhibition is calculated as: [(Ti−Tz)/(C−Tz)]×100 for concentrations for which Ti>/=Tz [(Ti−Tz)/Tz]×100 for concentrations for which Ti<Tz.
Three dose response parameters were calculated for each experimental agent. […]

tumor xenograft = assay: Tumor xenograft growth and acute toxicity; conditions: in vivo
[7] = test system: β-TrCP, Sp1, and androgen receptor (AR) expression in PrECs; assay: Western blot of β-TrCP, Sp1 and AR in PrECs; assay type: cell-based; conditions: escalating concentrations, 48 h
[8] = test system: Sirt1 gene expression in LNCaP cells; assay: Time course of Sirt1 expression in LNCaP cells (Western blot/RT-PCR); assay type: cell-based; conditions: OSU-CG12 10 μM, 2-DG 10 mM
Method: Total RNA was isolated from drug-treated LNCaP cells using the RNeasy mini kit (Qiagen, Valencia, Calif.), and then reverse-transcribed to cDNA using the Omniscript RT Kit (Qiagen) according to manufacturer's instructions. PCR products were separated electrophoretically in 1% agarose gels and visualized by ethidium bromide staining.
as §2

[9] = test system: [3H]-2-DG uptake into LNCaP cells; assay: Glucose uptake assay ([3H]-2-DG); assay type: cell-based; conditions: OSU-CG12 at 5 and 10 μM, resveratrol at 50 and 100 μM, P<0.05
Method: After washing cells with PBS, glucose uptake was initiated by addition of 1 mL of PBS containing 1 μCi/mL [^3H]-2-DG (Perkin Elmer, Waltham, Mass.) and […] nonradioactive 2-DG. After 5 min, glucose uptake was terminated by extensive washing with PBS, and cells were solubilized in 0.1% SDS buffer. Aliquots were taken for measurements of radioactivity using a scintillation counter LS6500 (Beckman).

THP-1 cells = assay: MTT viability of THP-1 cells; assay type: cell-based, human; conditions: at the concentrations used for IL-6 ELISA (dose range b224, 10 μM b226, 1 μM b229)

Row | IC50 ([1]; Homo sapiens, THP-1, 6 h, 10% FBS-containing medium, read-out: IC50 for inhibition of LPS-stimulated IL-6 production) | SMILES | potency in blocking IL-6 release ([1]; 1 μM, 6 h, LPS-stimulated THP-1) | first-tier screening result (AMPK/mTOR activation status and IL-6/IL-6 receptor signaling) ([1]; 10 μM) | inhibition at 10 µM ([1]; Homo sapiens, 10 μM, 6 h, LPS-stimulated THP-1) | potency in activating AMPK relative to AICAR (AMPK; LPS-treated THP-1, 6 h, AICAR 0.5 mM) | p-AMPK level in C-26 colon adenocarcinoma cells [2] | accumulation of LC3-II (autophagy marker) [3] | inhibition at 10 µM ([1]; Homo sapiens, THP-1, 6 h) | IC50 [4] | IC50 ([5]; LNCaP, MTT, 72 h, 10% FBS-supplemented medium, read-out: IC50 in inhibiting the viability of LNCaP prostate cancer cells) | IC50 ([5]; summary over LNCaP and MCF-7 cells, read-out: IC50 in suppressing cancer cell growth) | antitumor potency in NCI 60 cell line screening [6] | acute toxicity (tumor xenograft) | suppression of tumor xenograft growth (tumor xenograft) | expression levels of β-TrCP, Sp1, and AR in PrECs [7] | duration of transient transcriptional activation of Sirt1 gene expression [8] | inhibition of glucose uptake [9] | effect on LPS-stimulated IL-6 production ([1]; 10 μM, 6 h, LPS-stimulated THP-1) | AMPK activation (p-AMPK level) (AMPK; 10 μM, 6 h, LPS-treated THP-1) | effect on viability of THP-1 cells (THP-1 cells)
1 | ~1 µM | CC1(CN2C(=O)S/C(=C\c3ccc(NS(=O)(=O)c4ccc([N+](=O)[O-])c(C(F)(F)F)c4)cc3)C2=O)CCCCC1 [Compound 53, N-{4-[3-(1-Methyl-cyclohexylmethyl)-2,4-dioxo-thiazolidin-5-ylidene-methyl]-phenyl}-4-nitro-3-trifluoromethyl-benzenesulfonamide] | optimal agent; also recorded: highest potency | active | > 80% | two-orders-of-magnitude higher | robust increases in the p-AMPK level | – | – | – | – | – | – | – | – | – | – | – | – | – | –
2 | – | CC1(CN2C(=O)S/C(=C\c3ccc(O)c(C(F)(F)F)c3)C2=O)CCCCC1 [OSU-CG12, (Z)-5-(4-Hydroxy-3-trifluoromethyl-benzylidene)-3-(1-methyl-cyclohexylmethy)-thiazolidine-2-4-dione] | – | active | – | – | – | time-dependent accumulation of LC3-II | > 80% | 5 µM | 5.7 µM | 5 µM | significantly antitumor potency | without incurring acute toxicity | effectiveness in suppressing tumor xenograft growth | unaltered expression levels | 1 h | significantly inhibit glucose uptake | – | – | –
3 | – | CC1(COc2ccc(C=C3SC(=O)NC3=O)cc2)CCCCC1 [compound 62] | – | – | – | – | – | – | – | – | – | – | – | – | – | – | – | – | modest activities | effective in elevating the level of p-AMPK; also recorded: modest activities | neither agent inhibited the viability of THP-1 cells
